Results: patent US7208485B2, “Crystalline forms of halobetasol propionate” (Chemagis Ltd., priority 2003, dated 2007)

Experiment: Thermal solid-state stability / phase transition on heating (hot-stage microscopy, DSC)
Type: physicochemical
Details: for temperature of solid-solid phase transition upon heating: heating at ambient pressure, observed by hot-stage microscopy and as DSC peak
Protocol: Differential scanning calorimetry experiments were run on DuPont instruments model DSC 910, with software version 4.1C. Samples were analyzed inside 40 μl crimped Aluminum pan. Heating rate for all samples was 5° C./min. Since the melting of halobetasol propionate is accompanied by decomposition, the heating process was stopped slightly after the beginning of melting, in order to avoid damage to the measuring apparatus caused by decomposition products.

temperature of solid-solid phase transition upon heating | SMILES | also measured
160 °C | CCC(=O)O[C@]1(C(=O)CCl)[C@@H](C)CC2[C@@H]3C[C@H](F)C4=CC(=O)C=C[C@]4(C)[C@@]3(F)[C@@H](O)C[C@@]21C (some centres unmarked) [Form III, halobetasol propionate Form III] | –
about 90 °C | CCC(=O)O[C@]1(C(=O)CCl)[C@@H](C)CC2[C@@H]3C[C@H](F)C4=CC(=O)C=C[C@]4(C)[C@@]3(F)[C@@H](O)C[C@@]21C (some centres unmarked) [Form V, halobetasol propionate Form V] | –

Continued, molecule first:

SMILES | temperature of solid-solid phase transition upon heating | also measured
CCC(=O)O[C@]1(C(=O)CCl)[C@@H](C)CC2[C@@H]3C[C@H](F)C4=CC(=O)C=C[C@]4(C)[C@@]3(F)[C@@H](O)C[C@@]21C (some centres unmarked) [Form I, halobetasol propionate Form I] | 90 °C | –
CCC(=O)O[C@]1(C(=O)CCl)[C@@H](C)CC2[C@@H]3C[C@H](F)C4=CC(=O)C=C[C@]4(C)[C@@]3(F)[C@@H](O)C[C@@]21C (some centres unmarked) [Form II, halobetasol propionate Form II] | – | temperature to which heated without converting to another crystalline or amorphous form and without significant decomposition (heating): ≤ 200 °C; transitions upon heating to melting temperature (hot stage microscopy): no detectable transitions
CCC(=O)O[C@]1(C(=O)CCl)[C@@H](C)CC2[C@@H]3C[C@H](F)C4=CC(=O)C=C[C@]4(C)[C@@]3(F)[C@@H](O)C[C@@]21C (some centres unmarked) [Form IV, halobetasol propionate Form IV] | 120–130 °C | temperature of solid-solid phase transition under vacuum (heating under vacuum for about an hour or two): about 60 °C
CCC(=O)O[C@]1(C(=O)CCl)[C@@H](C)CC2[C@@H]3C[C@H](F)C4=CC(=O)C=C[C@]4(C)[C@@]3(F)[C@@H](O)C[C@@]21C (some centres unmarked) [Form VI, halobetasol propionate Form VI] | 150–170 °C | –
